≈ marks a conversion by molar mass, not a printed value. Entries after “also recorded” stand apart in the source; their conditions may differ.
Assays:
mCCR6 = biological target: T1, mCCR6 (Mus musculus, UniProt O54689); assay: In vitro inhibition of chemotaxis, mCCR6-transfected BaF3 cells to mCCL20; format: cell-based; details: in 100% serum
T1 construct: expressed in transfected cells; host or cells: BaF3 cells
T1 sequence (O54689 1-367): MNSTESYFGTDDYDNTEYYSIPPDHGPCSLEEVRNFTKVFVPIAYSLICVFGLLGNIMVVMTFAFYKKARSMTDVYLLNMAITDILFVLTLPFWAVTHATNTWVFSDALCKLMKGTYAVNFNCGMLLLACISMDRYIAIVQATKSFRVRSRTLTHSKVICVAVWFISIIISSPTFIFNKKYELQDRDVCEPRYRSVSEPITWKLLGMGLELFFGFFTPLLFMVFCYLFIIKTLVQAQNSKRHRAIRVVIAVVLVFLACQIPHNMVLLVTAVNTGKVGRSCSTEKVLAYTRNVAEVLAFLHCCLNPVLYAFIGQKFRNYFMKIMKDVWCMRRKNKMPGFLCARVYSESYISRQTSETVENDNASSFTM
Protocol: For in vitro determination of chemokine receptor inhibitor activity, Compound 1.136 was dissolved in DMSO to generate a stock concentration of 10 mM that was further diluted in chemotaxis migration buffer (HBSS, 1% BSA, 1% HEPES) to create a 10-point inhibitor gradient ranging from 100 nM-0.01 nM. Migration assay was then run in 100% mouse serum in response to rmCCL20 for CCR6 activity or rmCXCL1 for CXCR2 activity using ChemoTx plates (Neuroprobe, Gaithersburg Md.) and assessed by fluorescence staining of migrated cells with CyQuant (Thermo Fisher).

mCCR2 = biological target: T2, mCCR2 (Mus musculus, UniProt P51683); assay: Chemotaxis of mouse bone marrow cells to mCCL2; format: cell-based; details: in serum; unit inferred
T2 construct: endogenous in cells; host or cells: mouse bone marrow cells (from the earlier reading's assay name)

mCCR5 = biological target: T3, mCCR5 (Mus musculus, UniProt P51682); assay: Chemotaxis of mCCR5-transfected BaF3 cells to mCCL5; format: cell-based; details: in serum; unit inferred
T3 construct: expressed in transfected cells; host or cells: BaF3 cells (from the earlier reading's assay name)

mCCR9 = biological target: T4, mCCR9 (Mus musculus, UniProt Q9WUT7); assay: Chemotaxis of mouse thymocytes to mCCL25; format: cell-based; details: in serum; unit inferred
T4 construct: endogenous in cells; host or cells: mouse thymocytes (from the earlier reading's assay name)
T4 sequence (Q9WUT7 1-369): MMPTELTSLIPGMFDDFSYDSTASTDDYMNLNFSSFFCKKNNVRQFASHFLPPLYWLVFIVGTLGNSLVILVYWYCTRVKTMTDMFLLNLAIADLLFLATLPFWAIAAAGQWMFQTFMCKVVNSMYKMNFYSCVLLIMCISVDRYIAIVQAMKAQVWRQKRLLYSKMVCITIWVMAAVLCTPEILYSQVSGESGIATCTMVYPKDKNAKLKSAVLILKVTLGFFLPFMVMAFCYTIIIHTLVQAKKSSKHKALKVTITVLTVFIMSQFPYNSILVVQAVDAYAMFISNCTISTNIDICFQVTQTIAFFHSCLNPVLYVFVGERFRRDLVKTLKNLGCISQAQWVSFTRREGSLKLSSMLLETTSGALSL

[1] = test system: IL-36α-injected ears of Balb/c mice; assay: Mouse model of IL-36-induced ear thickening (GPP model); format: in vivo
Protocol: (§1) For in vivo dosing, mice were dosed subcutaneously with Compound 1.136 once daily (s.c. q.d. in 1% HPMC) at 90 mg/kg unless stated otherwise, starting at day 0 of a study. The in vivo dose was predicted based on in vitro potency and the pharmacokinetic response to a single dose in mice. The minimum antagonist concentration (at trough) to fully cover a gradient-sensing chemoattractant receptor has been determined to correspond with the IC90 concentration (Schall, T. J., and A. E. Proudfoot. 2011. Overcoming hurdles in developing successful drugs targeting chemokine receptors. Nat Rev Immunol 11: 355-363).
Mouse model of IL-36-induced ear thickening. The right ear of 8-week old Balb/c mice received intradermal injections of recombinant murine IL-36α (150 μg per mouse formulated in PBS; BioLegend) every day for 5 days. Intradermal injections of PBS were given to the left ear as a control. Ear thickness was measured prior to start of study and each day thoughout the study using a digital micrometer. The imiquimod model of psoriasiform dermatitis was performed as previously described (Campbell Jet al. J Immunol. 2017; 199(9):3129-36. van der Fits et al. J Immunol 2009; 182(9):5836-45). Briefly, 5% Imiquimod (Fougera®) was applied daily to the shaved and depilated backs of Balb/c mice for up to 4 days. Control mice were treated with an application of Vaseline. Erythema, desquamation, and skin thickening were scored independently on a scale from 0 to 4 where 0=no disease; 1=slight disease; 2=moderate disease; 3=marked disease; 4=very marked disease (Campbell J et al. J Immunol. 2017; 199(9):3129-36. van der Fits et al. J Immunol 2009; 182(9):5836-45). Skin from the backs of mice was excised at the end of the study and processed for flow cytometry analysis,
Mouse anti-IL-17RA. (R&D Systems) was dosed as a positive control at 200-500 μg per mouse, i.p., q.d.

[2] = test system: CD4 T cells, neutrophils and inflammatory dendritic cells within IL-36-treated skin; assay: Flow cytometry of leukocytes accumulating in IL-36-treated skin; format: in vivo, mouse; details: after 4 daily IL-36α ear injections; Compound 1.136 90 mg/kg/day s.c.; α-IL-17RA 200 μg/mouse/day i.p.; 90 mg/kg/day
Protocol: as §1
Flow cytometry of leukocytes. Ears or excised skin samples were digested in collagenase A and 1 U/ml DNAse I with agitation for 30 min at 37° C. Cells were then dislodged from skin, filtered through a […] sieve, washed and re-suspended in FACS buffer (PBS with 10% FBS) for analysis.
Directly conjugated Monoclonal antibodies were from R&D Systems (Minneapolis, Minn.), BioLegend (San Diego, Calif.), or eBioscience/ThermoFisher (San Diego, Calif.). CD45.2 (104) in AlexaFluor488, Ly6C (HK1.4) in PE, CD90.2 (30-H12) in Per CP-Cy5.5, TCRVγ4 (UC3-10A6) in PE-Cy7, TCRβ (H57-597) in APC, CD4 (GK1.5) in APC-eFluor-780, TCRγδ (GL3) in BV-421, LIVE/DEAD fixable Aqua stain (Molecular Probes, Eugene, Oreg.), CD11c (N418) in BV650, Ly6G (1A4) in BV711 and CD11b (M1/70) in BV785. Flow cytometry data were acquired with a Fortessa (BD Biosciences) cytometer and analyzed using FlowJo v10.2

T3 sequence (P51682 whole entry): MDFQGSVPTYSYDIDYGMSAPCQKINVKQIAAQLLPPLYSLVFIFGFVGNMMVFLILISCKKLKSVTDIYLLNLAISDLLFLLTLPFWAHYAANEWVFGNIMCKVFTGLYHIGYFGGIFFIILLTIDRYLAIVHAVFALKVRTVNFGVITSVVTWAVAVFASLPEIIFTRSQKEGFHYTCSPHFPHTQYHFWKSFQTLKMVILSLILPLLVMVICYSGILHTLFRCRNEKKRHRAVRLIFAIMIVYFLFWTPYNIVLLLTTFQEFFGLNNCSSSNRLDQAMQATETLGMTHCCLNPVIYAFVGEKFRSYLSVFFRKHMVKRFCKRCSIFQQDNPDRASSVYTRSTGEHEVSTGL
T2 sequence (P51683 whole entry): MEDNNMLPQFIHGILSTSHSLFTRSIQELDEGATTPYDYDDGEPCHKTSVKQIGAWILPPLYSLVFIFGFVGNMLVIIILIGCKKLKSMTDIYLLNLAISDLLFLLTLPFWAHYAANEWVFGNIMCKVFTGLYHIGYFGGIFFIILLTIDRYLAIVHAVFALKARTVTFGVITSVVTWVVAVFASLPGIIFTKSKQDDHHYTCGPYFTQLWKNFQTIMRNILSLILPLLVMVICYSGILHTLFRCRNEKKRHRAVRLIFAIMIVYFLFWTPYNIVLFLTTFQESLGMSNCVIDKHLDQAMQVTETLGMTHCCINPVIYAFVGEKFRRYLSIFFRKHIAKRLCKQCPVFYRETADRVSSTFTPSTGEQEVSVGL

IC90 (mCCR6; BaF3, read-out: IC90 for CCR6 inhibition): 0.045 µg/mL (≈ 0.102 µM)
IC50 (mCCR6; read-out: IC50 on mouse CCR6, in vitro inhibition of chemotaxis): 0.01 µM
IC50 (mCCR2): > 10 µM
IC50 (mCCR5): > 10 µM
IC50 (mCCR9): > 10 µM
SMILES: CCC(C)(C)[C@@H](Nc1c(Nc2c(F)ccc3c2C(=O)N[C@H]3C)c(=O)c1=O)c1ccc(C)o1 [Compound 1.136]
Effectiveness at reducing ear swelling, Compound 1.136 compared with α-IL-17RA ([1]; 90 mg/kg Compound 1.136 vs saturating dose of anti-IL-17RA MAb (500 μg per mouse per day), Mann-Whitney): significantly more effective than α-IL-17RA
Time course of the effect on ear thickness ([1]; Balb/c mice, daily intradermal IL-36α, Compound 1.136 s.c. once daily): appreciable after the second day of treatment
IL-36-induced ear thickening / ear swelling ([1]; Balb/c mice, daily intradermal IL-36α, ear thickness after 4 days, Compound 1.136 30-90 mg/kg s.c. q.d., anti-IL-17RA 200 or 500 μg per mouse IP daily): dose-dependent decreases in IL-36-induced ear thickening; also recorded: ameliorates inflammatory swelling of IL-36α-injected ears
Accumulation of CD4+ T cells within IL-36-treated skin [2]: significantly reduced the accumulation; also recorded: significantly reduces accumulation
Accumulation of inflammatory dendritic cells (iDC) within IL-36-treated skin [2]: significantly reduced the accumulation; also recorded: significantly reduces accumulation
Accumulation of neutrophils within IL-36-treated skin [2]: significantly reduced the accumulation; also recorded: significantly reduces accumulation
